Experimental data as given in US5998376A, “Substance P treatment for immunostimulation” (priority 1998, dated 1999).

Key:
Assay type in all cases: in vivo, C57BL6 mice
[1] = tested on: LP-BM5 murine leukemia retrovirus; assay: Mouse AIDS model, spleen changes and total cell numbers
Description: (§1) C57BL6 mice, average weight of 25-30 grams, were infected with the LP-BM5 murine leukemia retrovirus to simulate the human AIDS virus. […] The mice were divided into two groups; LP-BM5 virus only and LP-BM5 virus +substance P aerosol therapy at 1 μM concentration. The mice were killed at 4 and 8 weeks post-inoculation.

[2] = tested on: spleen, thymus and bone marrow cells; assay: Substance P aerosol therapy in JP-8 jet fuel exposed mice, cell numbers (FIGS. 1-3)
From the text: Since mice are nose-breathers, they were exposed to the aerosol/vapor mixture via nose-only presentation while they were held in individual loading tubes. The tubes were nose-fitted to receiving adaptors that originated from the common anodized aluminum exposure chamber (volume 0.3 m^3, IN-TOX, Albuquerque, N.Mex.). Noses were positioned in the exposure ports to minimize systemic absorption that might occur during total body exposure or through the process of self-grooming after exposure. The mice were rotated on a daily basis through the 24-adaptor positions of the exposure chamber. This was done to minimize proximity to the jet fuel source as a variable in exposure concentration or composition. Passive entrainment of the jet fuel aerosol/vapor mix and room air through the IN-TOX chamber was conducted by vacuum (15 liters/min). The vacuum was applied to the exposure chamber on the side opposite the fuel source. Animal exposure ports not in use were sealed during the exposure period. Longitudinal controls were sham-exposed in a manner identical to those receiving jet fuel, except that only room air was introduced into the exposure chamber. The exposure chamber was thoroughly cleaned prior to the longitudinal control group's exposure.
The substance P aerosol therapy was performed at the completion of the JP-8 jet fuel exposure. The nebulizer was modified with clean hoses and a new sonication crucible. […] The substance P aerosol therapy was conducted for the same seven day period over a total time period of nine days as the JP-8 jet fuel exposure regimen.

[3] = tested on: splenic B cells; assay: Mitogenesis of spleen B cells (lipopolysaccharide, 3H-thymidine) from LP-BM5-infected mice given SP aerosol; conditions: LP-BM5 virus + SP aerosol 1 μM
Description: as §1
The proliferation of splenic B and T cells induced by mitogens was determined by incorporation of radioactive thymidine. Splenocytes in 0.1 ml of cell culture medium (1×10^7 cells/ml) were cultured in 96-well flat-bottom cultured plates with ConA and lipopolysaccharide, 5 micrograms/ml). The cells were incubated at 37° C., 5% CO2 incubator for 72 hours for ConA-induced T cell proliferation, and then pulsed with ^3 H-thymidine (1 microCurie/well). After 4 hours for radioactive thymidine uptake, the cells were harvested by a cell sample harvester. Radioactivity was determined by a liquid scintillation counter (Tri-Carb, 2200CA). The T and B cell mitogenesis values were recorded as counts per min in 1×10^7 cells/ml.

[4] = JP-8 exposed mice, one micromolar aerosol 15 minutes
[5] = 4 weeks after infection, mean (SEM)

Substance P [SP]
changes in the mouse spleens ([1]; LP-BM5 mouse model, SP aerosol therapy): caused significant changes in the mouse spleens
total cell numbers (spleen) versus LP-BM5 group ([1]; SP+Virus Group, 4 weeks after infection): not accompanied by an increase in total cell numbers
effect on spleen cell number (FIG. 1) ([2]; JP-8 500 or 2500 mg/m^3, 1 hour/day 7 days, one micromolar aerosol 15 minutes after each exposure): totally reverse the effect of the jet fuel on the spleen cell number
effect on bone marrow cells (FIG. 3) [2, 4]: augments the stimulation substantially
effect on thymus cell number (FIG. 2) [2, 4]: substantially reverses the effect on cell number
Spleen B Cell Mitogenesis, 24 Hours in Culture [3, 5]: 2063 (448) counts per min
Spleen B Cell Mitogenesis, 48 Hours in Culture [3, 5]: 1369 (231) counts per min
Spleen B Cell Mitogenesis, 72 hours in culture [3, 5]: 1642 (158) counts per min
Spleen B Cell Mitogenesis, 72 hours in culture ([3]; 8 weeks post-infection, not significant): 3227 (854) counts per min
